The source made the active and inactive calls. How the calls were made is not given here.
Each compound was assayed against Ubiquitin carboxyl-terminal hydrolase 10 (Homo sapiens) (UniProt Q14694) (assay: ubiquitin-specific protease 10 DUB inhibitors, concentration-effect, biochemical, verification of primary screen actives (AID 1645863;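 further: potency values describe inhibition of USP10 cleavage of a fluorogenic ubiquitin substrate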)). Settings: USP10 deubiquitinase enzymatic assay.
Chain of Ubiquitin carboxyl-terminal hydrolase 10 (Homo sapiens) (Q14694 whole entry, looked up): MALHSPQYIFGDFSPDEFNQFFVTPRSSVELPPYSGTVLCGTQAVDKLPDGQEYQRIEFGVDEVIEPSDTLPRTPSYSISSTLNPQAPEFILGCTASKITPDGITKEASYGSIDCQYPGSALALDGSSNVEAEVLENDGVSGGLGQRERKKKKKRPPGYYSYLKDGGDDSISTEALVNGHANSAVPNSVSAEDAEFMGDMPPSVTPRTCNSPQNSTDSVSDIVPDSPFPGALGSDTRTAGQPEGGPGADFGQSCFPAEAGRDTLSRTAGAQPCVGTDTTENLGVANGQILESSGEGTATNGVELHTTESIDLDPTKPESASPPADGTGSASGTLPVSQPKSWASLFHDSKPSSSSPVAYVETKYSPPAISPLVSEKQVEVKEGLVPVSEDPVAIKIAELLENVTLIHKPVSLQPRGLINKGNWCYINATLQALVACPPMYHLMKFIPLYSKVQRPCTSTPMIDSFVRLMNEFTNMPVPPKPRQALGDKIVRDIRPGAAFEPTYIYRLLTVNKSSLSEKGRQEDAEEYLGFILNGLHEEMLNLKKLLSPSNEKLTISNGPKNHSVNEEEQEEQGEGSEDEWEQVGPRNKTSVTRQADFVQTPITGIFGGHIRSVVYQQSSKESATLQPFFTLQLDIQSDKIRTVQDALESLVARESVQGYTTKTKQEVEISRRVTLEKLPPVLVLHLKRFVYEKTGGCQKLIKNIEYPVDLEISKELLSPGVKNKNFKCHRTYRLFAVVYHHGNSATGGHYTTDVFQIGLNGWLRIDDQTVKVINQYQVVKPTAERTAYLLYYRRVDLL

Structure (SMILES) | IC50
CCCCCCCCCCCC1=C(O)C(=O)C=C(O)C1=O | 2.44 µM
COc1ccc(NC2c3ccccc3C(=O)N2c2ccccn2)cc1 (stereo not given) | > 40 µM (inactive)
O=c1[nH]cccc1NS(=O)(=O)c1ccc(F)cc1 | > 40 µM (inactive)
COC(=O)c1ccc(NC(=O)/C=C/c2ccc(F)cc2)cc1 | > 40 µM (inactive)
O=C(/C=C/c1ccco1)N1CCC(Cn2cccn2)CC1 | > 40 µM (inactive)
CCOc1ccc(C2SCC(=O)Nc3c2c(=O)[nH]n3C2CCCCC2)cc1 (stereo not given) | > 40 µM (inactive)
O=c1c2cc(Br)ccc2[nH]c(=S)n1Cc1cccnc1 | > 40 µM (inactive)
c1ccc(CNc2ccc(-c3ccccc3)nn2)cc1 | > 40 µM (inactive)
Cc1cc(C(F)(F)F)n2nc(C3CCN(C(=O)c4cnn(C)c4C)C3)cc2n1 (stereo not given) | > 40 µM (inactive)
O=C(/C=C/c1c(F)cccc1Cl)N1CCc2ccccc2C1 | > 40 µM (inactive)
O=C(O)c1nccnc1C(=O)N1CCc2ccccc2C1 | > 40 µM (inactive)
CCCCCCCCCC(CCCCCCCCCC(=O)O)O[C@H]1O[C@@H](COC(C)=O)[C@H](O)[C@@H](O)[C@H]1OC(=O)CC(=O)O (stereo not given in full) | 29.4 µM
CCOc1ccc(NS(=O)(=O)c2ccc(NC(=O)Nc3ccccc3)cc2)cc1 | > 40 µM (inactive)
CCn1cc2c(n1)c(=O)n(Cc1ccccc1)c(=O)n2CC(=O)Nc1ccc(C)cc1C | 12.1 µM
CN(C)c1ccc(CNC(=O)c2nnc(C(=O)Nc3ccccc3)s2)cc1 | > 40 µM (inactive)
Cc1ccccc1NC(=O)N1CCC(CC(=O)N2CCCCC2)CC1 | > 40 µM (inactive)
O=C(CSc1nc2cc(C(F)(F)F)ccc2s1)NCC(=O)c1ccccc1 | 18.1 µM
O=C(Cn1nnc2ccccc21)Nc1nc(-c2ccc3c(c2)CCN3C(=O)c2ccccc2F)cs1 | 34.9 µM
CCC(C)N1CNc2c(c(=O)[nH]c(=O)n2Cc2ccco2)C1 (stereo not given) | > 40 µM (inactive)
CC(=O)O[C@@H](C/C=C(\C)C(=O)O)[C@@H](C)[C@H]1C[C@H](OC(C)=O)[C@@]2(C)C3=CC[C@H]4C(C)(C)[C@H](O)CC[C@]4(C)C3=CC[C@]12C | 18 µM

Structure (SMILES) | IC50
COc1ccccc1/C=C/C(=O)NC(Cc1ccccc1)c1nc2ccccc2[nH]1 (stereo not given) | > 40 µM (inactive)
COc1ccccc1N1CCN(C(=O)c2ccc3c(=O)n(CCc4ccccc4)c(=O)[nH]c3c2)CC1 | > 40 µM (inactive)
O=C(/C=C/c1ccc(F)cc1)N1CCc2ccccc2C1 | > 40 µM (inactive)
Cc1ccc(Nc2nc(Nc3cccc(F)c3)nc3nccnc23)c(C)c1 | > 40 µM (inactive)
COc1cc2c(=O)n(Cc3ccccc3)c(=O)n(CC(=O)N3CCCc4ccccc43)c2cc1OC | 12.7 µM
CC[C@H](C)[C@H](NC(=O)[C@H]([C@@H](C)CC)N(C)C(C)=O)C(=O)N[C@H](C(=O)N[C@@H](CC(C)C)C(=O)C1(C)CO1)[C@@H](C)O (stereo not given in full) | > 40 µM (inactive)
COc1ccc(Cl)cc1NC(=O)c1cc(-c2ccccn2)n[nH]1 | 9.33 µM
CCN(c1ccc(NC(=O)CSc2nnc(-c3ccccc3)n2-c2ccc(OC)c(OC)c2)cc1)C(C)C | > 40 µM (inactive)
CNc1nc2c(c(=O)n1C)CN(C(=O)Nc1cccc3ccccc13)CC2 | > 40 µM (inactive)
O=C(NCC1(c2ccccc2)CCC1)c1nc2n(n1)-c1ccccc1S(=O)(=O)N2 | 12.8 µM
O=C(Cn1c(COc2ccccc2)nc2ccccc21)Nc1ccc(N2CCOCC2)cc1 | > 40 µM (inactive)
COc1ccc(-c2noc(C3(c4ccc(F)cc4)CCOCC3)n2)cc1 | > 40 µM (inactive)
CC(C)=CCC[C@H](C(=O)O)[C@@H]1CC[C@]2(C)C3=C(CC[C@@]12C)[C@@]1(C)CCC(=O)C(C)(C)C1CC3 (stereo not given in full) | 23.8 µM
O=C(Nc1ccc(F)cc1F)c1cc(-c2ccccn2)n[nH]1 | > 40 µM (inactive)
Cc1ccc(S(=O)(=O)Nc2ccccc2C(=O)Nc2nc3ccc(Br)cc3s2)cc1 | > 40 µM (inactive)
COc1ccccc1CNC(=O)CCCCn1c(=O)c2ccccc2n(Cc2ccc(C)cc2)c1=O | 20.8 µM
Cc1cc(=O)[nH]c(SCC(=O)c2cc(C)n(CCC3=CCCCC3)c2C)c1C#N | > 40 µM (inactive)
Cn1cc(-c2nc(C(=O)Nc3ccc(C#N)cc3)cs2)c2cccnc21 | > 40 µM (inactive)
CSc1ccc(CNC(=O)Cn2nc(C)c3c(C)n(-c4ccccc4)nc3c2=O)cc1 | 10.3 µM
O=C1CSC(c2ccc3c(c2)OCO3)c2c(n(C3CCCCCC3)[nH]c2=O)N1 (stereo not given) | 36.8 µM

Next, values leading:

IC50 | Structure (SMILES)
> 40 µM (inactive) | Cc1ccc(-n2nc(C(=O)Nc3ccc(C)cn3)c3ncn(C)c(=O)c32)cc1
> 40 µM (inactive) | CCOc1ccc2c(c1)c(=O)c(C(=O)c1ccccc1)cn2CC(=O)Nc1ccc(OC)cc1
> 40 µM (inactive) | Cc1cc(NC(=O)CSc2ncc(-c3cccc([N+](=O)[O-])c3)n2-c2cccc(Cl)c2)no1
> 40 µM (inactive) | COc1cccc(NC(=O)c2oc3ccccc3c2NC(=O)COc2cccc(OC)c2)c1
> 40 µM (inactive) | Cc1ccc(-n2c(=O)[nH]c3c(C(N)=O)nc(-c4ccc(OCc5ccccc5)cc4)nc32)cc1
> 40 µM (inactive) | CCOCc1ccc(C(=O)N[C@H](C)c2nc3cc(-c4ccc(OC)cc4)ncn3n2)cc1
1.75 µM | O=c1cc(-c2ccc(O)c(O)c2)oc2cc(O[C@@H]3O[C@H](CO)[C@@H](O)[C@H](O)[C@H]3O)cc(O)c12
inactive | O=c1cc(Cc2ccccc2)nc2c(-c3ccccc3)c(COc3ccccc3)[nH]n12
15.9 µM | CC(C)=CCc1c(O)cc2c(c1C)OC(=O)c1c(C)c(Cl)c(O)c(CO)c1O2
31.1 µM | COc1ccc(Cl)cc1NC(=O)Cn1c(=O)n(CCCC(=O)NCc2ccc(C)cc2)c(=O)c2sccc21
> 40 µM (inactive) | CCCCC/C=C/C=C/C(=O)OC1C(O)CC(c2ccc3c(c2O)C(=O)c2c(O)cc4cc(C)cc(O)c4c2C3=O)OC1C (stereo not given)
31.5 µM | COc1cc2c(c(OCC(=O)Nc3ccc4c(c3)OCCO4)c1)C(=O)O[C@@H](C)CCCC(=O)CCCCC2
> 40 µM (inactive) | O=C(NC1CCCC1)C1CC(=O)N(c2cccc(-c3noc(-c4cccs4)n3)c2)C1 (stereo not given)
> 40 µM (inactive) | Oc1cccc2c(-c3ccc(O)c4c(O)cccc34)ccc(O)c12
14.3 µM | Cc1cc(C)cc(NC(=O)Nc2ccccc2OCc2cc(=O)n3c(ncn3C(C)C)n2)c1
> 40 µM (inactive) | Cn1c(COc2cccc3cccnc23)nnc1SCC(=O)c1ccc(Cl)cc1Cl
25.4 µM | Cc1ccc(Nc2nc(O)c(CC(=O)Nc3cccc(Cl)c3C)s2)cc1C
> 40 µM (inactive) | Cn1c(=O)c(-c2ccc(C(=O)NCc3cccc(Cl)c3)cc2)nc2cccnc21
26.6 µM | Nc1ccc2oc(-c3cccc(-c4nc5cc(N)ccc5o4)n3)nc2c1
10.6 µM | O=C(CCCCCn1c(=O)c2sccc2n(CC(=O)c2ccc(Cl)c(Cl)c2)c1=O)NCc1ccc2c(c1)OCO2
26.9 µM | COc1cc(Cl)c(NC(=O)C2Cc3ccccc3N2C(=O)c2ccccc2)c(OC)c1 (stereo not given)
> 40 µM (inactive) | Cn1c(C(=O)NCc2ccccn2)cc2c(=O)[nH]c3ccccc3c21
13.7 µM | COc1cc2c(cc1OC)-c1cc(Nc3ccc(Br)cc3)nc(=O)n1CC2
> 40 µM (inactive) | O=C(Nc1c2c(nn1-c1ccc([N+](=O)[O-])cc1)CSC2)c1c(F)cccc1F
> 40 µM (inactive) | CCCc1ccc(C(=O)[C@@H]2[C@@H](C(=O)c3cccs3)N3c4ccc(C)cc4C(C)=C[C@@H]3[C@@]23C(=O)Nc2ccccc23)cc1
